Tested on: HUVEC
Test: Endothelial permeability assay: electrical resistance across HUVEC monolayer (ECIS)
Assay type: cell-based, human
Details: for decreased resistance in PDZ-GEF2-depleted cells: PDZ-GEF2 siRNA
Method: FIG. 2: PDZ-GEF2 knockdown in HUVECs leads to immature adherens junction and decreases endothelial resistance. Panel A: PDZ-GEF2 knockdown leads to immature VE-cadherin-based junctions in endothelial cells. HUVEC were transfected twice with scrambled, Epac1 or PDZ-GEFs siRNA and replated on glass coverslips. The cells were fixed when they formed a monolayer and immunostained with anti-VE-cadherin antibody. Panel B: Basal electrical resistance across HUVEC monolayers. Cells were treated as described in A and replated on electrodes. ECIS was measured continuously for 15 hours and the values reported are the final time points. […] The values reported correspond to the endothelial resistance measured 90 minutes after adding 007 to the culture media. * p<0.03 control mock vs 007; p<0.001 PDZ-GEF2.285 mock vs 007.
293T and A549 cells were transfected using FuGENE6 reagent for 48 hours (Roche Diagnostics Corporation). For siRNA, A549 cells and HUVEC were transfected using oligofectamine (Invitrogen) for 24 to 48 hours according to the manufacturer's instructions. In the case of the HUVEC, transfection was repeated after 24 hours. Samples were analyzed 48 hours after the second round of transfection. Oligos sequences (Dharmacon): PDZ-GEF2 (285: GGATCCAACTTATATAGAA) (SEQ ID NO:______); (289: GACACGGATTGTATTATTA) (SEQ ID NO:______); *Epac1 (GCACCTA CGTCTGCAACAA) (SEQ ID NO:______) and (CCATCATCCTGCGAGAAGA) (SEQ ID NO:______). 8-pCPT-2′O-Me-cAMP/8-pCPT -2′-OMe-cAMP (Biolog) was used at a final concentration of 100 μM. Quantification of the PDZ-GEF2 knockdown was performed using Scion Image (Scion Corporation).
To assess endothelial permeability, we measured electrical resistance continuously across endothelial cell monolayer using the methodology known as “Electric Cell-Substrate Impedance Sensing” (ECIS).^[21] Briefly, HUVEC were grown to confluence on small gold electrodes and ECIS was subsequently monitored for up to 15 hours. Data was analyzed using the Applied Biophysics software.

[1] = HUVEC, 100 μM, 30-minute stimulation

What does the source list for CO[C@@H]1[C@@H]2OP(=O)(O)OC[C@H]2O[C@H]1n1c(Sc2ccc(Cl)cc2)nc2c(N)ncnc21 [8-pCPT-2′-OMe-cAMP]?
endothelial resistance in PDZ-GEF2 knockdown HUVEC (90 minutes after adding 007, PDZ-GEF2.285, p<0.001 mock vs 007): rescues the PDZ-GEF2 knockdown phenotype; endothelial resistance in control HUVEC (90 minutes after adding 007 to the culture media, p<0.03 mock vs 007): increases endothelial resistance; electrical resistance in Epac1 siRNA cells (HUVEC transfected with Epac1 siRNA, 100 μM): minimal effect; electrical resistance in scrambled siRNA cells [1]: increased resistance; decreased resistance in PDZ-GEF2-depleted cells [1]: completely rescued; decreased resistance in PDZ-GEF2-depleted cells (HUVEC, 100 μM, 30-minute stimulation, listed as 8-pCPT-2′OMe-cAMP): rescued

— patent publication US20080293076A1, “Method to improve barrier function of cell-cell junctions” (UMC Utrecht Holding B.V., priority 2007, published 2008)
